Experimental data reported in patent publication US4426389A, “Derivatives of clavulanic acid, a process for their preparation and their use” (Beecham Group Limited, priority 1979, dated 1984).
≈ marks a conversion by molar mass, not a printed value.

Tests used:
Format in all cases: cell-based
[1] = system: Staph. aureus Russell; test: MIC by standard microtitre technique (dilution in tryptone soy broth), Staph. aureus Russell; conditions: Staphylococcus aureus, alone
Method: (§1) By a standard microtitre technique the MIC values for ampicillin alone, ampicillin and 9-N-(2'-cyanoethyl)aminodeoxyclavulanic acid and 9-N-(2'-cyanoethyl)aminodeoxyclavulanic acid alone were determined.
(§2) MIC μg/ml (dilution in tryptone soy broth)

[2] = system: Kleb. aerogenes E70; test: MIC by standard microtitre technique (dilution in tryptone soy broth), Kleb. aerogenes E70; conditions: Klebsiella aerogenes, alone
[3] = system: E. coli JT39; test: MIC by standard microtitre technique (dilution in tryptone soy broth), E. coli JT39; conditions: Escherichia coli, alone
Method: as §1, §2

[4] = system: Staph. aureus Oxford; test: Antibacterial activity, MIC, Staph. aureus Oxford; conditions: Staphylococcus aureus
From the text: (§3) Antibacterial activity of 9-N-(2'-cyanoethyl)aminodeoxyclavulanic acid, MIC μg/ml.

[5] = system: Staph. aureus Russell; test: Antibacterial activity, MIC, Staph. aureus Russell; conditions: Staphylococcus aureus
From the text: as §3

[6] = system: Strep. Pyogenes; test: Antibacterial activity, MIC, Strep. Pyogenes; conditions: Streptococcus pyogenes
From the text: as §3

[7] = system: Strep. Pneumoniae; test: Antibacterial activity, MIC, Strep. Pneumoniae; conditions: Streptococcus pneumoniae
From the text: as §3

| Structure (SMILES) | MIC [1] | MIC [2] | MIC [3] | MIC [4] | MIC [5] | MIC [6] | MIC [7] |
| --- | --- | --- | --- | --- | --- | --- | --- |
| CC1(C)S[C@@H]2[C@H](NC(=O)[C@H](N)c3ccccc3)C(=O)N2[C@H]1C(=O)O [Ampicillin, ampicillin, reference compound] | 500 to 1000 mg/L (≈ 1430 to 2860 µM) | 500 to 1000 mg/L (≈ 1430 to 2860 µM) | – | – | – | – | – |
| N#CCCNC/C=C1\O[C@@H]2CC(=O)N2[C@H]1C(=O)O [9-N-(2'-Cyanoethyl)aminodeoxyclavulanic acid] | 16 mg/L (≈ 63.7 µM) | 250 mg/L (≈ 995 µM) | 31 mg/L (≈ 123 µM) | 10 to 20 mg/L (≈ 39.8 to 79.6 µM) | 10 to 20 mg/L (≈ 39.8 to 79.6 µM) | 10 mg/L (≈ 39.8 µM) | 5 mg/L (≈ 19.9 µM) |
